Source: a compilation of properties of binary mixtures (doi:10.1021/jp911536z)

Experiment: xn = mol fraction of the nth substance listed
Settings: 298.15 K, 100 kPa

CCn1cc[n+](C)c1.C[C@H](O)C(=O)[O-] + O
Settings	electrical conductivity [S/m]	speed of sound [m/s]	viscosity [mPa·s]
x1 = 0.0056	0.329	–	–
x1 = 0.0097	–	1567.3	1.17
x1 = 0.0197	–	1631	1.44
x2 = 0.0056	–	1731.4	–
x2 = 0.0097	1.76	–	–
x2 = 0.0197	2.71	–	–
x2 = 0.0304	3.15	–	–
x2 = 0.0374	3.28	–	–
x2 = 0.0464	–	1735.1	110
x2 = 0.0739	3.02	–	–
x2 = 0.094	2.75	–	–
x2 = 0.0982	–	1738.6	60.5
x2 = 0.2881	1.07	–	–
x2 = 0.4781	0.597	–	–
x2 = 0.5219	–	1797.9	18.5
x2 = 0.6862	0.481	–	–
x2 = 0.7119	–	1826.6	11.3
x2 = 0.9018	0.259	–	–
x2 = 0.906	–	1842.9	5.65
x2 = 0.9261	–	1819.8	4.36
x2 = 0.9536	0.289	–	–
x2 = 0.9547	–	1748.4	2.68
x2 = 0.9626	–	1719.9	2.23
